Assay results taken from patent publication US20150336943A1, “NOVEL BENZODIOXANE-PIPERIDINE DERIVATIVES AND THEIR THERAPEUTIC APPLICATIONS FOR TREATING NEUROPSYCHIATRIC DISORDERS” (PIERRE FABRE MEDICAMENT, priority 2013, published 2015).

Experiments:
dopaminergic receptor D3 = target: T1, dopaminergic receptor D3 (Homo sapiens, UniProt P35462); assay: Inhibition constants (Ki) for dopaminergic receptor D3 in recombinant cells; format: binding; settings: read-out: pKi D3 (converted)
T1 construct: expressed in transfected cells; host or cells: recombinant human cells (so in the source)
T1 sequence (P35462 whole entry): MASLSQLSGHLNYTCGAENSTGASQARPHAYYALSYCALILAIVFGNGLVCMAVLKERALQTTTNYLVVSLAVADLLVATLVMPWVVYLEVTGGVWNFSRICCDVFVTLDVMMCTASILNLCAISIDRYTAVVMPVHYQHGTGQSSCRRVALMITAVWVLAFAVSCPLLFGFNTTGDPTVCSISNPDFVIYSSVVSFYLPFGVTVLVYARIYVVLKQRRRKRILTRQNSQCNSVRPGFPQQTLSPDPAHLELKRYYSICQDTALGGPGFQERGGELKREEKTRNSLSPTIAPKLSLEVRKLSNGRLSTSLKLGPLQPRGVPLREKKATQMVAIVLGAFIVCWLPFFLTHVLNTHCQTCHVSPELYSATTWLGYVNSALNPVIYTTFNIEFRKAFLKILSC
Experimental: (§1) Compounds of formula 1 have been evaluated in vitro as ligands for dopaminergic and noradrenergic receptors and modulators of the activity of these receptors according to the invention in recombinant human cells expressing the receptors. The inhibition constants (Ki) were measured for dopaminergic receptors D2 and D3, and for adrenergic receptors alpha2A, alpha2B and alpha2C, according to the described methods (Newman-Tancredi A, Assie M B, Martel J C, Cosi C, Slot L B, Palmier C, Rauly-Lestienne I, Colpaert F, Vacher B, Cussac D. F15063, a potential antipsychotic with D2/D3 antagonist, 5-HT 1A agonist and D4 partial agonist properties. I. In vitro receptor affinity and efficacy profile. Br J Pharmacol., 2007, 151:237-252). The intrinsic activity of the products for the D2 receptor was measured (Bruins Slot L A, De Vries L, Newman-Tancredi A, Cussac D. Differential profile of antipsychotics at serotonin 5-HT1A and dopamine D2S receptors coupled to extracellular signal-regulated kinase. Eur J Pharmacol, 2006, 534; 63-70. The results obtained for some of these compounds are presented in the following table.

[1] = target: T2, adrenergic receptor alpha2C (Homo sapiens, UniProt P18825); assay: Inhibition constants (Ki) for adrenergic receptor alpha2C in recombinant cells; format: binding; settings: read-out: pKi α2C (converted)
T2 construct: expressed in transfected cells; host or cells: recombinant human cells (so in the source)
T2 sequence (P18825 1-462): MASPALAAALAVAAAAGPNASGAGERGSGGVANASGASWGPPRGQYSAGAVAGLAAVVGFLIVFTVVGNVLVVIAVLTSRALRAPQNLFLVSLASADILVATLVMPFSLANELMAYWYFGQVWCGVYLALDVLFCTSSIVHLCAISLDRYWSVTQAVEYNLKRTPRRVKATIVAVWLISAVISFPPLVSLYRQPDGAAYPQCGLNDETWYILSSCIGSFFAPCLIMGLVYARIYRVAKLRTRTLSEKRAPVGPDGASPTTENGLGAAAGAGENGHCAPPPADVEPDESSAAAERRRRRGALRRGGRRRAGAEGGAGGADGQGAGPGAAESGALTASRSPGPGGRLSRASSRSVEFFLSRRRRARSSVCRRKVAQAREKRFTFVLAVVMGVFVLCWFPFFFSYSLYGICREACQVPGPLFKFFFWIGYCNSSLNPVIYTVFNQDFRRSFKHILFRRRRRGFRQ
Experimental: as §1

[2] = system: scopolamine-induced amnesia; assay: Passive avoidance memory test (scopolamine-induced amnesia) in rats; format: in vivo; settings: for Latency to enter the dark compartment: scopolamine, measured 48 h after training, carrier 24±12
Experimental: Example 31 was evaluated in rats in a memory test, the passive avoidance test (Chopin P, Briley M. Effects of four non-cholinergic cognitive enhancers in comparison with tacrine and galanthamine on scopolamine-induced amnesia in rats, Psychopharmacology (Berl), 1992; 106:26-30). This test consists of teaching a rat not to enter a dark compartment (its naturally preferred place) where it had previously received an electric shock (0.8 mA). The animal's reticence (the time lapse or “latency” to enter the dark compartment) measured 48 h after its training is considered as an index of its explicit-declarative memory. Latency greatly […] when an amnesic product such as scopolamine is administered shortly after receiving the first shock. A product with promnesic properties opposes the effects of scopolamine.

D2 receptor = target: T3, D2 receptor (Homo sapiens, UniProt P14416); assay: Intrinsic (agonist) activity at the D2 receptor; format: cell-based
T3 construct: expressed in transfected cells; host or cells: recombinant human cells (so in the source)
T3 sequence (P14416 1-414 isoform P14416-2): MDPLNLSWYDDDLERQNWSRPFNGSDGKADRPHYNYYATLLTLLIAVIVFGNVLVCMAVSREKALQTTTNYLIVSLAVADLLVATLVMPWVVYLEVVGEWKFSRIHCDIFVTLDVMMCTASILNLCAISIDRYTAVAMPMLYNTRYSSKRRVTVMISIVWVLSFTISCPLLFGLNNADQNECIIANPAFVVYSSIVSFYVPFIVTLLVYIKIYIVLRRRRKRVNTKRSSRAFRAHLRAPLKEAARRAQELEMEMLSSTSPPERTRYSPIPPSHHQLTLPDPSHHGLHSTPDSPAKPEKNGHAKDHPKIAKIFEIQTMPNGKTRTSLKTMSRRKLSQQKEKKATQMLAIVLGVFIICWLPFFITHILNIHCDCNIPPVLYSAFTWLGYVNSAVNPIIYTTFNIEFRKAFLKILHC
Experimental: The prior art mentions, for benzodioxane-piperidine derivatives bearing an amide, a urea or an imidazolidinone, as non-selective alpha2-antagonists (WO 97/28157, WO 98/02435); some of these products also have a weak affinity for the D2 dopaminergic receptor (T. Imbert, J. Med. Chem, 2000, 43: 3653-3664). […] Activity as a D2 and D3 receptor agonist was determined according to the described methods (Bruins Slot L A, De Vries L, Newman-Tancredi A, Cussac D. Differential profile of antipsychotics at serotonin 5-HT1A and dopamine D2S receptors coupled to extracellular signal-regulated kinase. Eur J Pharmacol, 2006, 534; 63-70; Bruins Slot L A, Palmier C, Tardif S, Cussac D. Action of novel antipsychotics at human dopamine D3 receptors coupled to G protein and ERK1/2 activation. Neuropharmacology, 2007, 53: 232-241) for the following compounds, such as described in WO 97/28157 and WO 98/02435; • 1-benzyl-3-(2-(1-((2,3-dihydrobenzo[b][1,4]dioxin-2-yl)methyl)piperidin-4-yl)ethyl)imidazolidin-2-one • 1-(2-(1-((2,3-dihydrobenzo[b][1,4]dioxin-2-yl)methyl)piperidin-4-yl)ethyl)-3-methylimidazolidin-2-one • 1-(2,6-dichlorophenyl)-3-(2-(1-((2,3-dihydrobenzo[b][1,4]dioxin-2-yl)methyl)piperidin-4-yl)ethyl)imidazolidin-2-one • 1-(2-(1-((2,3-dihydrobenzo[b][1,4]dioxin-2-yl)methyl)piperidin-4-yl)ethyl)-3-(pyridin-4-yl)imidazolidin-2-one • 3-(2-(1-((2,3-dihydrobenzo[b][1,4]dioxin-2-yl)methyl)piperidin-4-yl)ethyl)-1-phenylimidazolidine-2,4-dione • (S)—N-(2-(1-((2,3-dihydrobenzo[b][1,4]dioxin-2-yl)methyl)piperidin-4-yl)ethyl)-[1,1′-biphenyl]-4-carboxamide • (S)—N-(2-(1-((2,3-dihydrobenzo[b][1,4]dioxin-2-yl)methyl)piperidin-4-yl)ethyl)-4-(1H-pyrrol-1-yl)benzamide • (S)—N-(2-(1-((2,3-dihydrobenzo[b][1,4]dioxin-2-yl)methyl)piperidin-4-yl)ethyl)-4-(pyridin-4-yl)benzamide • (S)—N-(2-(1-((2,3-dihydrobenzo[b][1,4]dioxin-2-yl)methyl)piperidin-4-yl)ethyl)-4-(pyridin-3-yl)benzamide • (S)—N-(2-(1-((2,3-dihydrobenzo[b][1,4]dioxin-2-yl)methyl)piperidin-4-yl)ethyl)-9-oxo-9H-fluorene-1-carboxamide.
as §1

dopaminergic receptor D2 = target: T4, dopaminergic receptor D2 (Homo sapiens, UniProt P14416); assay: Inhibition constants (Ki) for dopaminergic receptor D2 in recombinant cells; format: binding; settings: read-out: pKi D2 (converted)
T4 construct: expressed in transfected cells; host or cells: recombinant human cells (so in the source)
T4 sequence (P14416 whole entry): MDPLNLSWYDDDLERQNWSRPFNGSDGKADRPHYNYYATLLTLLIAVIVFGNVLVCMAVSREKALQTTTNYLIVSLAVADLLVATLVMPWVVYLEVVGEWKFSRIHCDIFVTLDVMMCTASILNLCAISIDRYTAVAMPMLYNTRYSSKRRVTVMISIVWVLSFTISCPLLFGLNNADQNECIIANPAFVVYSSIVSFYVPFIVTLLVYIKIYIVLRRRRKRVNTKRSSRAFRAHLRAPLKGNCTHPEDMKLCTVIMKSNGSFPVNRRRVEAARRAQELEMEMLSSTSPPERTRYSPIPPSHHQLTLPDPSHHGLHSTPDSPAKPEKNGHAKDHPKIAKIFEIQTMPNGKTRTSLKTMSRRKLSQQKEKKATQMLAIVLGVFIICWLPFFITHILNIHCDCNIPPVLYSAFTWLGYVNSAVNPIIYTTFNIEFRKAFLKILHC
Experimental: as §1

[3] = target: T5, adrenergic receptor alpha2B (Homo sapiens, UniProt P18089); assay: Inhibition constants (Ki) for adrenergic receptor alpha2B in recombinant cells; format: binding; settings: read-out: pKi α2B (converted)
T5 construct: expressed in transfected cells; host or cells: recombinant human cells (so in the source)
T5 sequence (P18089 1-450): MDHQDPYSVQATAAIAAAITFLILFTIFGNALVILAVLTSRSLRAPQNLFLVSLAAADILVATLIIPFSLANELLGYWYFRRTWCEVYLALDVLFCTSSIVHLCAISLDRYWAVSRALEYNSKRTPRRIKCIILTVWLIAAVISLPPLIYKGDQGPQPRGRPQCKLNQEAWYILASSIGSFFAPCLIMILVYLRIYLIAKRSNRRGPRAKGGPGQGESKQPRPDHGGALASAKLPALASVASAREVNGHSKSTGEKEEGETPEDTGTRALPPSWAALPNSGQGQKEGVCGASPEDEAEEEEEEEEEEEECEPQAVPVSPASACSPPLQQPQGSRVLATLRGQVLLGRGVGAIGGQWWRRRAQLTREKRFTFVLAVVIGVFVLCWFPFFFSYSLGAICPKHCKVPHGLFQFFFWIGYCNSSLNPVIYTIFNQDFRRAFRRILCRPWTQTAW
Experimental: as §1

[4] = system: MK-801-induced hyperactivity; assay: MK-801-induced hyperactivity test in mice; format: in vivo; settings: Mus musculus
[5] = target: T6, adrenergic receptor alpha2A (Homo sapiens, UniProt P08913); assay: Inhibition constants (Ki) for adrenergic receptor alpha2A in recombinant cells; format: binding; settings: read-out: pKi α2A (converted)
T6 construct: expressed in transfected cells; host or cells: recombinant human cells (so in the source)
T6 sequence (P08913 1-465): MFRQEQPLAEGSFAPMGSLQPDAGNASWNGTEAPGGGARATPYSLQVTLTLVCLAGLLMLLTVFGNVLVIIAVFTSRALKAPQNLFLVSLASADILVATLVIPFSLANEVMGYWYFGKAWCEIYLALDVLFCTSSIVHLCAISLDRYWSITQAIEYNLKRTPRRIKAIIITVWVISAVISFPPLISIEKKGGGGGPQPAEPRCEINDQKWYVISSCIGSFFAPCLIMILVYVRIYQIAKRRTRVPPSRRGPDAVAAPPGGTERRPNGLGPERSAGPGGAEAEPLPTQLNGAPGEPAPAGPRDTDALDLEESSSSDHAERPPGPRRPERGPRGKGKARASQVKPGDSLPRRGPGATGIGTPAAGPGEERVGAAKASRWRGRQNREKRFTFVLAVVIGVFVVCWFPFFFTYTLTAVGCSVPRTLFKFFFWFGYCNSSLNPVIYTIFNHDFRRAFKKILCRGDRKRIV
Experimental: as §1

Row | SMILES | Ki (dopaminergic receptor D3) [nM] | Ki [1] [nM] | Effect on scopolamine-induced amnesia in the passive avoidance test ([2]; doses of 0.16, 0.63, 2.5 and 10 mg/kg) | I.A.: Intrinsic activity on receptor D2 in vitro (D2 receptor) | Ki (dopaminergic receptor D2) [nM] | Ki [3] [nM] | ED50 [4] [mg/kg] | Ki [5] [nM] | Latency to enter the dark compartment ([2]; dose 0.63 mg/kg) [s] | Latency to enter the dark compartment ([2]; dose 2.5 mg/kg) [s]
1 | Cc1ccc2c(c1)O[C@@H](CN1CCC(CCN3C(=O)OC[C@@H]3Cc3ccccc3)CC1)CO2 [Example 31, (S)-4-benzyl-3-(2-(1-(((S)-7-methyl-2,3-dihydrobenzo[b][1,4]dioxin-2-yl)methyl)piperidin-4-yl)ethyl)oxazolidin-2-one] | 0.525 | 1 | opposed to the effect of scopolamine | 0 percentage of that of dopamine | 1.17 | 2.95 | 2.1 | 5.13 |  | 
2 | O=C1OCCN1CCC1CCN(C[C@H]2COc3ccccc3O2)CC1 [Example 1, (S)-3-(2-(1-((2,3-dihydrobenzo[b][1,4]dioxin-2-yl)methyl)piperidin-4-yl)ethyl)oxazolidin-2-one] |  |  |  |  |  |  |  |  | 60 ± 21 | 78 ± 22
3 | O=C1OC[C@H](Cc2ccccc2)N1CCC1CCN(C[C@H]2COc3ccc(Br)cc3O2)CC1 [Example 26, (S)-4-benzyl-3-(2-(1-(((S)-7-bromo-2,3-dihydrobenzo[b][1,4]dioxin-2-yl)methyl)piperidin-4-yl)ethyl)oxazolidin-2-one] | 0.447 | 2.04 |  | 8 percentage of that of dopamine | 0.891 | 9.55 | 0.9 | 34.7 |  | 
